We go through four compounds from ChEMBL document CHEMBL4699525, “Design and synthesis of new indanol-1,2,3-triazole derivatives as potent antitubercular and antimicrobial agents” (Bioorg Med Chem Lett, 2020).

In data set [1] the target is T1, Enoyl-[acyl-carrier-protein] reductase [NADH] (Mycobacterium tuberculosis) (UniProt P9WGR1).
T1 sequence (whole entry): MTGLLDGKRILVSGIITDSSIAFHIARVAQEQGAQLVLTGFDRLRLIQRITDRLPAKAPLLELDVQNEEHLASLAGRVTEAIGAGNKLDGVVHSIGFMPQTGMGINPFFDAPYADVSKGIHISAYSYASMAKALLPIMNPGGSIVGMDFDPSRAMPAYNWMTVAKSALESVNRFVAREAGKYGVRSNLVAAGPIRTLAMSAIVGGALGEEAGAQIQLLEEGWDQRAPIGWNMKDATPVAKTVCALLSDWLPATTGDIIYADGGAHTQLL
The experiment in a line: Inhibition of InhA in Mycobacterium tuberculosis H37Rv assessed antitubercular activity by measuring inhibition of bacterial growth incubated for 7 days by MABA assay. The conditions noted are these: time 7.0 day.

The nature of data set [2]: Cytotoxicity against human HEK293 cells assessed as inhibition of cell growth at 25 uM incubated for 48 hrs by MTT assay. The format is cell-based. For orientation: Tetrazolium assays rely on reduction of a dye to a coloured formazan, in cell work by metabolically active cells.
In data set [3] the test system is Staphylococcus aureus. The experiment in a line: Antibacterial activity against Staphylococcus aureus assessed as inhibition of bacterial growth incubated for 24 hrs by agar well diffusion method. The format is functional.
The subject of the next data set is Bacillus cereus. The experiment in a line: Antibacterial activity against Bacillus cereus assessed as inhibition of bacterial growth incubated for 24 hrs by agar well diffusion method. The format is functional. For orientation: In agar diffusion tests the substance spreads into inoculated agar from a disc or well.
The test system of another data set is Bacillus subtilis. In words: Antibacterial activity against Bacillus subtilis assessed as inhibition of bacterial growth incubated for 24 hrs by agar well diffusion method. The format is functional.
In data set [4] the test system is Klebsiella aerogenes. The experiment in a line: Antibacterial activity against Enterobacter aerogenes assessed as inhibition of bacterial growth incubated for 24 hrs by agar well diffusion method. The format is functional.
A further data set relates to Escherichia coli. The experiment in a line: Antibacterial activity against Escherichia coli assessed as inhibition of bacterial growth incubated for 24 hrs by agar well diffusion method. The format is functional.
The test system of a further data set is Salmonella typhi. In words: Antibacterial activity against Salmonella typhi assessed as inhibition of bacterial growth incubated for 24 hrs by agar well diffusion method. The format is functional, Salmonella enterica subsp. enterica serovar Typhi.
A further data set has as its system Pseudomonas aeruginosa. The experiment in a line: Antibacterial activity against Pseudomonas aeruginosa assessed as inhibition of bacterial growth incubated for 24 hrs by agar well diffusion method. The format is functional.
For data set [5], the system named is Shigella boydii. The experiment in a line: Antibacterial activity against Shigella boydii assessed as inhibition of bacterial growth incubated for 24 hrs by agar well diffusion method. The format is functional.
For data set [6], the system named is Salmonella enterica subsp. enterica serovar Abony. In words: Antibacterial activity against Salmonella abony assessed as inhibition of bacterial growth incubated for 24 hrs by agar well diffusion method. The format is functional.
For data set [7], the system named is Aspergillus niger. In words: Antifungal activity against Aspergillus niger assessed as inhibition of fungal growth incubated for 24 hrs by agar well diffusion method. The format is functional.
The test system of data set [8] is Candida albicans. In words: Antifungal activity against Candida albicans assessed as inhibition of fungal growth incubated for 24 hrs by agar well diffusion method. The format is functional.
Data set [9] concerns Saccharomyces cerevisiae. The experiment in a line: Antifungal activity against Saccharomyces cerevisiae assessed as inhibition of fungal growth incubated for 24 hrs by agar well diffusion method. The format is functional.
In data set [10] the test system is Staphylococcus aureus. In words: Antibacterial activity against Staphylococcus aureus assessed as inhibition of bacterial growth incubated for overnight by CLSI based method. The format is functional.
Data set [11] has as its system Klebsiella aerogenes. In words: Antibacterial activity against Enterobacter aerogenes assessed as inhibition of bacterial growth incubated for overnight by CLSI based method. The format is functional.
The subject of data set [12] is Shigella boydii. The experiment in a line: Antibacterial activity against Shigella boydii assessed as inhibition of bacterial growth incubated for overnight by CLSI based method. The format is functional.
Data set [13] has as its system Aspergillus niger. In words: Antifungal activity against Aspergillus niger assessed as inhibition of […] growth incubated for overnight by CLSI based method. The format is functional.
Data set [14] deals with Candida albicans. In words: Antifungal activity against Candida albicans assessed as inhibition of […] growth incubated for overnight by CLSI based method. The format is functional.
Data set [15] deals with Saccharomyces cerevisiae. The experiment in a line: Antifungal activity against Saccharomyces cerevisiae assessed as inhibition of […] growth incubated for overnight by CLSI based method. The format is functional.

Converted amounts (≈) assume the structure as drawn.

By inhibition is commonly meant the change of the read-out against control, counted positive when it falls. For the compound `Cc1ccc([N+](=O)[O-])cc1-n1cc(COc2ccc3c(c2)CCC3)nn1`, the MIC in data set [1] worked out at 12.5 µM (≈ 4.38 µg/mL); in the data set on Staphylococcus aureus [10], 50 µg/mL (≈ 143 µM); with Klebsiella aerogenes [11] it was 60 µg/mL (≈ 171 µM); with Shigella boydii [12] it was 60 µg/mL (≈ 171 µM); in the data set with Aspergillus niger [13], 155 µg/mL (≈ 442 µM); with Candida albicans [14] it was 40 µg/mL (≈ 114 µM). In addition, the MIC with Saccharomyces cerevisiae [15] turned out to be 150 µg/mL (≈ 428 µM). In addition, the inhibition at 48 h, 25 µM in [2] amounted to 26.5%. Further, the “diameter of the inhibition zone (DIZ)” value was found to be 13 mm with Staphylococcus aureus [3]; 12 mm in the data set on Bacillus cereus; 12 mm in the data set on Bacillus subtilis; 11 mm in the data set on Klebsiella aerogenes [4]; 11 mm with Escherichia coli; 11 mm in the data set with Salmonella typhi. The “diameter of the inhibition zone (DIZ)” value is 9 mm in the data set on Pseudomonas aeruginosa; 11 mm in the data set on Shigella boydii [5]; 9 mm in data set [6]; 6 mm with Aspergillus niger [7]; 15 mm with Candida albicans [8]; 6 mm in the data set on Saccharomyces cerevisiae [9].
`Cc1ccc(-n2cc(COc3ccc4c(c3)CCC4)nn2)c(C)c1`: the MIC was 1.56 µM (≈ 0.498 µg/mL) in data set [1]; 150 µg/mL (≈ 470 µM) with Staphylococcus aureus [10]; 75 µg/mL (≈ 235 µM) in the data set with Klebsiella aerogenes [11]; 55 µg/mL (≈ 172 µM) in the data set on Shigella boydii [12]; 70 µg/mL (≈ 219 µM) in the data set on Aspergillus niger [13]; 60 µg/mL (≈ 188 µM) in the data set on Candida albicans [14]. Besides, in the data set on Saccharomyces cerevisiae [15], the MIC stood at 50 µg/mL (≈ 157 µM). For the same compound, the inhibition at 48 h, 25 µM in data set [2] is 19.9%. In addition, the “diameter of the inhibition zone (DIZ)” value with Staphylococcus aureus [3] is recorded as 7 mm; in the data set on Bacillus cereus, 10 mm; in the data set with Bacillus subtilis, 10 mm; in the data set on Klebsiella aerogenes [4] it was 10 mm; in the data set with Escherichia coli, 12 mm; in the data set with Salmonella typhi, 12 mm. Moreover, the “diameter of the inhibition zone (DIZ)” value in the data set with Pseudomonas aeruginosa worked out at 13 mm; in the data set on Shigella boydii [5] it was 11 mm; in data set [6] it was 9 mm; in the data set with Aspergillus niger [7], 10 mm; in the data set on Candida albicans [8] it was 11 mm; in the data set on Saccharomyces cerevisiae [9], 12 mm.
Turning to `Brc1ccccc1-n1cc(COc2ccc3c(c2)CCC3)nn1`, the MIC in data set [1] came out at 6.25 µM (≈ 2.31 µg/mL); in the data set on Staphylococcus aureus [10], 90 µg/mL (≈ 243 µM); with Klebsiella aerogenes [11], 120 µg/mL (≈ 324 µM); with Shigella boydii [12] it was 140 µg/mL (≈ 378 µM); in the data set on Aspergillus niger [13], 170 µg/mL (≈ 459 µM); in the data set on Candida albicans [14], 130 µg/mL (≈ 351 µM). Also, the MIC in the data set with Saccharomyces cerevisiae [15] was found to be 110 µg/mL (≈ 297 µM). Also, the inhibition at 48 h, 25 µM in data set [2] came to 16.5%. In addition, the “diameter of the inhibition zone (DIZ)” value in the data set on Staphylococcus aureus [3] is reported as 16 mm; with Bacillus cereus it was 9 mm; with Bacillus subtilis, 10 mm; in the data set on Klebsiella aerogenes [4], 12 mm; in the data set on Escherichia coli it was 11 mm; in the data set with Salmonella typhi, 11 mm. The “diameter of the inhibition zone (DIZ)” value is given as 13 mm in the data set on Pseudomonas aeruginosa; 12 mm in the data set on Shigella boydii [5]; 13 mm in data set [6]; 7 mm in the data set with Aspergillus niger [7]; 9 mm in the data set with Candida albicans [8]; 10 mm with Saccharomyces cerevisiae [9].
As for `COc1ccc(-n2cc(COc3ccc4c(c3)CCC4)nn2)cc1`, the MIC in [1] was 25 µM (≈ 8.03 µg/mL); with Staphylococcus aureus [10], 160 µg/mL (≈ 498 µM); in the data set with Klebsiella aerogenes [11] it was 130 µg/mL (≈ 405 µM); with Shigella boydii [12] it was 70 µg/mL (≈ 218 µM); with Aspergillus niger [13] it was 180 µg/mL (≈ 560 µM); in the data set on Candida albicans [14], 80 µg/mL (≈ 249 µM). In addition, the MIC with Saccharomyces cerevisiae [15] was determined as 210 µg/mL (≈ 653 µM). In addition, the inhibition at 48 h, 25 µM in data set [2] came to 21.1%. The “diameter of the inhibition zone (DIZ)” value came out at 8 mm in the data set on Staphylococcus aureus [3]; 5 mm with Bacillus cereus; 10 mm in the data set on Bacillus subtilis; 9 mm in the data set on Klebsiella aerogenes [4]; 10 mm in the data set on Escherichia coli; 8 mm in the data set with Salmonella typhi. The “diameter of the inhibition zone (DIZ)” value in the data set with Pseudomonas aeruginosa is recorded as 12 mm; in the data set with Shigella boydii [5], 11 mm; in [6], 12 mm; in the data set on Aspergillus niger [7], 6 mm; in the data set with Candida albicans [8] it was 11 mm; in the data set with Saccharomyces cerevisiae [9] it was 5 mm.
